In patent US5696083A, “Personal care composition containing pyrithione and polymyxin” (Olin Corporation, priority 1994, dated 1997):

Key:
Format in all cases: cell-based
[1] = system: Pseudomonas aeruginosa; assay: Checkerboard MIC Test in Tryptic Soy Broth; details: Table 4, 28° C., 3 days
Experimental: (§1) Determinations of minimum inhibitory concentrations (MIC's) of the two compounds (pyrithione salts and/or polymyxin sulfate) in a nutrient broth (alone and in mixtures) were conducted to evaluate interactions. Stock solutions of pyrithione salts and/or polymyxin salts were diluted in Tryptic Soy Broth (Difco), and the dilutions were inoculated with an equal volume of bacterial culture (10^6 /ml) or fungal spore suspension (10^5 /ml) in Tryptic Soy Broth and incubated at 28° C. for 3-7 days.
(§2) The interactions of the antimicrobials were determined according to accepted procedures (M. C. Berenbaum [Tables 1 and 2] and P. F. Dougherty "Microdilution Transfer Plate Technique for Determining In Vitro Synergy of Antimicrobial Agents", ANTIMICROBIAL AGENTS AND CHEMOTHERAPY, Vol. 11, No. 2, p. 225-228 (Feb. 1977, American Society for Microbiology) [Tables 3 and 4]). The concentration of each agent in the combination that inhibits the organisms is expressed as a fraction of the concentration that causes the same effect when the same agent is tested alone (i.e., its fractional inhibitory concentration, FIC). If the sum of the FIC's is 1, the combination is additive in its antimicrobial effect; if the sum is <1, the combination is synergistic; and if the sum is >1, the combination is antagonistic.
(§3) ^b Each dilution contained 10^6 bacteria/ml of 10^5 fungi/ml.

[2] = system: Trichophyton mentagrophytes; assay: Checkerboard MIC Test in Tryptic Soy Broth; details: Table 4, 28° C., 5 days
Experimental: as §1, §2, §3

[3] = system: Candida albicans; assay: Checkerboard MIC Test in Tryptic Soy Broth; details: Table 4, 28° C., 5 days
Experimental: as §1, §2, §3

[4] = system: Pseudomonas fluorescens; assay: Checkerboard MIC Test in Tryptic Soy Broth; details: Table 4, 28° C., 3 days
Experimental: as §1, §2, §3

[5] = system: Proteus mirabilis; assay: Checkerboard MIC Test in Tryptic Soy Broth; details: Table 4, 28° C., 3 days
Experimental: as §1, §2, §3

[6] = system: Cephalosporium sp.; assay: MIC in Tryptic Soy Broth, compounds alone and in mixtures; details: Table 2, 28° C., 7 days
Experimental: as §1, §2
(§4) ^a Compounds were serially diluted in Tryptic soy Broth (DIFCO),
as §3
(§5) ^a Stock solutions of ZP in dimethylsulfoxide and PB in sterile water

[7] = system: Pseudomonas aeruginosa; assay: as above; details: Table 2, 28° C., 6 days
Experimental: as §1, §2, §4, §3, §5

[8] = system: Gliocladium virens; assay: as above; details: Table 2, 28° C., 7 days
Experimental: as §1, §2, §4, §3, §5

[9] = system: Trichophyton mentagrophytes; assay: as above; details: Table 2, 28° C., 7 days
Experimental: as §1, §2, §4, §3, §5

[10] = system: Fusarium solani; assay: as above; details: Table 2, 28° C., 7 days
Experimental: as §1, §2, §4, §3, §5

[11] = system: Alcaligens faecalis; assay: as above; details: Table 2, 28° C., 6 days
Experimental: as §1, §2, §4, §3, §5

[12] = system: Pseudomonas rubescens; assay: as above; details: Table 2, 28° C., 6 days
Experimental: as §1, §2, §4, §3, §5

[13] = system: Chaetomium globosium; assay: as above; details: Table 2, 28° C., 7 days
Experimental: as §1, §2, §4, §3, §5

[14] = system: Candida albicans; assay: as above; details: Table 2, 28° C., 7 days
Experimental: as §1, §2, §4, §3, §5

[15] = system: Aureobasidium pullulans; assay: as above; details: Table 2, 28° C., 7 days
Experimental: as §1, §2, §4, §3, §5

[16] = system: Pseudomonas oleovorans; assay: as above; details: Table 2, 28° C., 6 days
Experimental: as §1, §2, §4, §3, §5

[17] = system: Pseudomonas fluorescens; assay: as above; details: Table 2, 28° C., 6 days
Experimental: as §1, §2, §4, §3, §5

[18] = system: Penicillin pinophilium; assay: as above; details: Table 2, 28° C., 7 days
Experimental: as §1, §2, §4, §3, §5

[19] = system: Citrobacter freundii; assay: as above; details: Table 2, 28° C., 6 days
Experimental: as §1, §2, §4, §3, §5

[20] = system: Aspergillus niger; assay: as above; details: Table 2, 28° C., 7 days
Experimental: as §1, §2, §4, §3, §5

[21] = system: Proteus mirabilis; assay: as above; details: Table 2, 28° C., 6 days
Experimental: as §1, §2, §4, §3, §5

[22] = system: Pseudomonas Stutzeri; assay: as above; details: Table 2, 28° C., 6 days
Experimental: as §1, §2, §4, §3, §5

[23] = system: Fusarium sp.; assay: as above; details: Table 2, 28° C., 7 days
From the text: as §4, §3, §5

[24] = alone, checkerboard, PE methanesulfonate, Na+, 14,310 units/mg
[25] = alone, Tryptic Soy Broth, PB sulfate 7730 units/mg
[26] = concentration of the component in ZP+PB mixture, ZP/PB ratio 1/8-1
[27] = concentration of the component in ZP+PB mixture, ZP/PB ratio 1/32-1/8

## zinc pyrithione [ZP]
[1]; [24]
  Minimum Inhibitory Concentration, Compound Used Alone: 128 ppm
[1]; concentration of the component in ZP+PE mixtures, ZP/PE range 2-8
  Minimum Inhibitory Concentration, Mixture Range: 16-32 ppm
[2]; [24]
  Minimum Inhibitory Concentration, Compound Used Alone: 16 ppm
[2]; concentration of the component in ZP+PE mixtures, ZP/PE range 1/4-4
  Minimum Inhibitory Concentration, Mixture Range: 8-16 ppm
[3]; [24]
  Minimum Inhibitory Concentration, Compound Used Alone: 16 ppm
[3]; concentration of the component in ZP+PE mixtures, ZP/PE range 1/2048-1/4
  Minimum Inhibitory Concentration, Mixture Range: 1-8 ppm
[4]; [24]
  Minimum Inhibitory Concentration, Compound Used Alone: 64 ppm
[4]; concentration of the component in ZP+PE mixtures, ZP/PE range ≤1/128-4
  Minimum Inhibitory Concentration, Mixture Range: ≤1-16 ppm
[5]; [24]
  Minimum Inhibitory Concentration, Compound Used Alone: 8 ppm
[5]; concentration of the component in ZP+PE mixtures, ZP/PE range 1/1024
  Minimum Inhibitory Concentration, Mixture Range: 4 ppm
[6]; [25]
  Minimum Inhibitory Concentration, Compound Used Alone: 16.0 ppm
[6]; concentration of the component in ZP+PB mixture, ZP/PB ratio 1/16-1/8
  Minimum Inhibitory Concentration, Mixture: 4.0 ppm
[7]; [25]
  Minimum Inhibitory Concentration, Compound Used Alone: 288.0 ppm
[7]; concentration of the component in ZP+PB mixture, ZP/PB ratio 128-256
  Minimum Inhibitory Concentration, Mixture: 112.0 ppm
[8]; [25]
  Minimum Inhibitory Concentration, Compound Used Alone: 80.0 ppm
[8]; concentration of the component in ZP+PB mixture, ZP/PB ratio 1-2
  Minimum Inhibitory Concentration, Mixture: 24.0 ppm
[9]; [25]
  Minimum Inhibitory Concentration, Compound Used Alone: 8.0 ppm
[9]; concentration of the component in ZP+PB mixture, ZP/PB ratio 1/4-1/2
  Minimum Inhibitory Concentration, Mixture: 8.0 ppm
[10]; [25]
  Minimum Inhibitory Concentration, Compound Used Alone: 64.0 ppm
[10]; [26]
  Minimum Inhibitory Concentration, Mixture: 13.3 ppm
[11]; [25]
  Minimum Inhibitory Concentration, Compound Used Alone: 10.7 ppm
[11]; concentration of the component in ZP+PB mixture, ZP/PB ratio 8-32
  Minimum Inhibitory Concentration, Mixture: 6.7 ppm
[12]; [25]
  Minimum Inhibitory Concentration, Compound Used Alone: 3.3 ppm
[12]; concentration of the component in ZP+PB mixture, ZP/PB ratio 256
  Minimum Inhibitory Concentration, Mixture: 3.3 ppm
[13]; [25]
  Minimum Inhibitory Concentration, Compound Used Alone: 67.0 ppm
[13]; [26]
  Minimum Inhibitory Concentration, Mixture: 13.3 ppm
[14]; [25]
  Minimum Inhibitory Concentration, Compound Used Alone: 8.0 ppm
[14]; [27]
  Minimum Inhibitory Concentration, Mixture: 4.0 ppm
[15]; [25]
  Minimum Inhibitory Concentration, Compound Used Alone: 8.0 ppm
[15]; concentration of the component in ZP+PB mixture, ZP/PB ratio 1/32-1/16
  Minimum Inhibitory Concentration, Mixture: 4.0 ppm
[16]; [25]
  Minimum Inhibitory Concentration, Compound Used Alone: 6.7 ppm
[16]; concentration of the component in ZP+PB mixture, ZP/PB ratio 16-32
  Minimum Inhibitory Concentration, Mixture: 4.0 ppm
[17]; [25]
  Minimum Inhibitory Concentration, Compound Used Alone: 106.7 ppm
[17]; concentration of the component in ZP+PB mixture, ZP/PB ratio 8-16
  Minimum Inhibitory Concentration, Mixture: 4.7 ppm
[18]; [25]
  Minimum Inhibitory Concentration, Compound Used Alone: 16.0 ppm
[18]; concentration of the component in ZP+PB mixture, ZP/PB ratio 1/8
  Minimum Inhibitory Concentration, Mixture: 4.0 ppm
[19]; [25]
  Minimum Inhibitory Concentration, Compound Used Alone: 8.0 ppm
[19]; concentration of the component in ZP+PB mixture, ZP/PB ratio 16-64
  Minimum Inhibitory Concentration, Mixture: 3.3 ppm
[20]; [25]
  Minimum Inhibitory Concentration, Compound Used Alone: 32.0 ppm
[20]; [27]
  Minimum Inhibitory Concentration, Mixture: 16.0 ppm
[21]; [25]
  Minimum Inhibitory Concentration, Compound Used Alone: 4.0 ppm
[21]; concentration of the component in ZP+PB mixture, ZP/PB ratio 1/32
  Minimum Inhibitory Concentration, Mixture: 2.0 ppm
[22]; [25]
  Minimum Inhibitory Concentration, Compound Used Alone: 4.0 ppm
[22]; concentration of the component in ZP+PB mixture, ZP/PB ratio 16-128
  Minimum Inhibitory Concentration, Mixture: 4.0 ppm
[23]; [25]
  Minimum Inhibitory Concentration, Compound Used Alone: 64.0 ppm
[23]; [26]
  Minimum Inhibitory Concentration, Mixture: 18.7 ppm
